Laboratory results: patent publication US7989458B2, “Pyrimidine derivatives as alk-5 inhibitors” (Novartis AG, priority 2006, dated 2011)

T1: human ALK5 (ALK5 T204D kinase domain) (Homo sapiens, UniProt P36897, T204D)
T1 construct: The kinase domain of human ALK5 (amino acids 200-503); made in house; host or cells: insect cells (baculovirus)
T1 sequence (P36897 200-503 T204D): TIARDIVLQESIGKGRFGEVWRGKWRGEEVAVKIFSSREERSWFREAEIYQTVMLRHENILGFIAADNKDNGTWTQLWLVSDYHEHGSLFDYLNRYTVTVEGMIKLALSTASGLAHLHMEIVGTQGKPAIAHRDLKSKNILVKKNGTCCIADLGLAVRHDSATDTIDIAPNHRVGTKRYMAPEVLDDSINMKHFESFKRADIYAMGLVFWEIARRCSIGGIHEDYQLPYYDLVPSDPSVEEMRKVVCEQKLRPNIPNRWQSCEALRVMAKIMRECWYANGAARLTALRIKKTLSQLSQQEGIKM


How the values were obtained:
[1] = molecular target: T1, human ALK5 (ALK5 T204D kinase domain); experiment: ALK5 kinase activity, [33P] phosphate incorporation into casein; type: biochemical; details: casein substrate, 1 μM unlabelled ATP
Procedure: The kinase activity of ALK5 is assessed by measuring radiolabelled phosphate [33P] incorporation in to the generic substrate, casein. The kinase domain of human ALK5 (amino acids 200-503) is fused to an N-terminal histidine tag. The kinase activity of ALK5 is rendered constitutive via point mutation at amino acid 204 (threonine to aspartate modification, ALK5 T204D) and the kinase construct is engineered to be expressed from a baculovirus expression construct in insect cells. The purified, recombinantly-expressed histidine-tagged ALK5 T204D protein is dissolved at 5.4 mg/ml in 50 mM Tris-HCl pH 8.0, 150 mM NaCl, 5 mM DTT. ALK5 T204D is dissolved to 2.5 μg/ml in assay buffer (Assay buffer: 20 mM Tris-HCl pH 7.4, 10 mM MgCl2, 2 mM MnCl2) on the day of use.
Test compounds and reference compounds are dissolved in assay buffer without DTT containing 5% (v/v) DMSO. Stock solutions of test and reference compounds are diluted in assay buffer with DTT (1.25 mM) containing 4.5% (v/v) DMSO. 10 μl of test or reference compound are added to the appropriate wells of 96 well U-bottomed plate. Total enzyme activity is determined by measuring ALK5 T204D activity in the absence of ALK5 kinase inhibitor reference compounds. Non-specific binding (NSB) is determined by measuring the activity of ALK5 T204D in the presence of ALK5 kinase inhibitor reference compounds. 10 μl of dephosphorylated casein stock solution (dephosphorylated casein is dissolved in ddH2O at 20 mg/ml) is added per well (200 μg/well final assay concentration). 20 μl of ALK5 T204D (2.5 μg/ml solution) is added per well (50 ng/well final assay concentration). The plates are left to incubate at room temperature for 10 minutes.
10 μl of ATP mix is added to the well to initiate the reaction (0.66 nM [^33P]ATP/1 μM unlabelled ATP/well final assay concentration). The ATP mix is prepared as follows, unlabelled ATP (3 mM) is dissolved in ddH2O and pH adjusted to 7.4. The stock concentration of [^33P]ATP is 10 μCi/μl. The appropriate volume of [^33P]ATP is added to unlabelled ATP solution such that the final assay concentration per well is 0.1 μCi. Following addition of the ATP mix, the plates are incubated at room temperature for 50 minutes. The kinase reaction is terminated by the addition of 50 μL Stop Buffer (20 mM Tris-HCl pH 7.4, 10 mM EDTA).
75 μl/well from the reaction plate is transferred to a Multiscreen-IP plate (MultiScreen-IP plates are prepared by added 50 μL of 70% (v/v) ethanol per well and incubated for 5 minutes at room temperature. The ethanol is removed by aspiration via a MultiScreen HTS Vacuum Manifold unit (Millipore, Cat no: MSVMHT500). The plates are washed twice by adding 200 μl/well ddH2O). The MultiScreen-IP plate is incubated at room temperature for 30 minutes to allowing binding of casein to the plate. The MultiScreen-IP plates are washed three times by adding 200 μl/well 100 mM phosphoric acid solution and the gasket is carefully removed from the back of the MultiScreen-IP plate and the plate dried in the oven for 30 minutes. The MultiScreen-IP plate is backsealed, 50 μL of Microscint™20 is added, then the plates are topsealed and radiolabelled casein detected and quantified on a TopCount™ plate-reader using the ^33P scintillation protocol.

[2] = test system: dimethylnitrosamine induced liver fibrosis; details: rat, cited from earlier work
bleomycin-treated rats = details: cited from earlier work
[3] = given therapeutically, 3 weeks treatment

Row | IC50 [1] [nM] | Molecule | further results
1 | 40 | Cc1cccc(-c2nc(NCc3cccc(O)c3)cc(-c3cncc(-c4ccc(F)cc4)c3)n2)n1 [Example 2.71, 3-{[6-[5-(4-Fluoro-phenyl)-pyridin-3-yl]-2-(6-methyl-pyridin-2-yl)-pyrimidin-4-ylamino]-methyl}-phenol] | 
2 | 80 | COc1cccc(-c2cncc(-c3cc(NCc4cccc(O)c4)nc(-c4ccccn4)n3)c2)c1 [Example 2.17, 3-({6-[5-(3-Methoxy-phenyl)-pyridin-3-yl]-2-pyridin-2-yl-pyrimidin-4-ylamino}-methyl)-phenol] | 
3 | 910 | Cc1cncc(-c2cc(NCCc3c[nH]c4ccccc34)nc(-c3ccccn3)n2)c1 [Example 2.31, [2-(1H-Indol-3-yl)-ethyl]-[6-(5-methyl-pyridin-3-yl)-2-pyridin-2-yl-pyrimidin-4-yl]-amine] | 
4 |  | c1ccc(-c2cc(-c3cn[nH]c3-c3ccccn3)ccn2)cc1 [GW6604] | side effects ([2]; during the 3 weeks treatment): no obvious side effects; inhibition of extracellular matrix deposition [2, 3]: 60%; prevention of death rate [2, 3]: 40%
5 | 790 | Fc1ccc2[nH]cc(CCNc3cc(-c4cccnc4)nc(-c4ccccn4)n3)c2c1 [Example 1.15, [2-(5-Fluoro-1H-indol-3-yl)-ethyl]-(6-pyridin-3-yl-2-pyridin-2-yl-pyrimidin-4-yl)-amine] | 
6 | 100 | c1ccc(-c2nc(NCc3cccc4[nH]ccc34)cc(-c3cccnc3)n2)nc1 [Example 1.1, (1H-Indol-4-ylmethyl)-(6-pyridin-3-yl-2-pyridin-2-yl-pyrimidin-4-yl)-amine] | 
7 | 310 | Fc1cccc2c(CCNc3cc(-c4cccnc4)nc(-c4ccccn4)n3)c[nH]c12 [Example 1.42, [2-(7-Fluoro-1H-indol-3-yl)-ethyl]-(6-pyridin-3-yl-2-pyridin-2-yl-pyrimidin-4-yl)-amine] | 
8 | 570 | c1ccc(-c2nc(NCc3c[nH]c4ccccc34)cc(-c3cccnc3)n2)nc1 [Example 1.23, (1H-Indol-3-ylmethyl)-(6-pyridin-3-yl-2-pyridin-2-yl-pyrimidin-4-yl)-amine] | 
9 | 20 | COc1cncc(-c2cc(NCc3cccc4[nH]ccc34)nc(-c3cccc(C)n3)n2)c1 [Example 2.2, (1H-Indol-4-ylmethyl)-[6-(5-methoxy-pyridin-3-yl)-2-(6-methyl-pyridin-2-yl)-pyrimidin-4-yl]-amine] | 
10 | 60 | Cc1cccc(-c2nc(NCCc3c[nH]c4ccccc34)cc(-c3cccnc3)n2)n1 [Example 1.3, [2-(1H-Indol-3-yl)-ethyl]-[2-(6-methyl-pyridin-2-yl)-6-pyridin-3-yl-pyrimidin-4-yl]-amine] | 
11 | 30 | c1ccc(-c2nc(NCCc3cccc4[nH]ccc34)cc(-c3cccnc3)n2)nc1 [Example 1.2, [2-(1H-Indol-4-yl)-ethyl]-(6-pyridin-3-yl-2-pyridin-2-yl-pyrimidin-4-yl)-amine] | 
12 | 180 | c1ccc(-c2nc(NCCc3coc4ccccc34)cc(-c3cccnc3)n2)nc1 [Example 1.77, (2-Benzofuran-3-yl-ethyl)-(6-pyridin-3-yl-2-pyridin-2-yl-pyrimidin-4-yl)-amine] | 
13 | 150 | Oc1ccccc1CCNc1cc(-c2cccnc2)nc(-c2ccccn2)n1 [Example 1.62, 2-[2-(6-Pyridin-3-yl-2-pyridin-2-yl-pyrimidin-4-ylamino)-ethyl]-phenol] | 
14 | 80 | Cc1cccc(-c2nc(NCCc3cccc(O)c3)cc(-c3cccnc3)n2)n1 [Example 1.48, 3-{2-[2-(6-Methyl-pyridin-2-yl)-6-pyridin-3-yl-pyrimidin-4-ylamino]-ethyl}-phenol] | 
15 | 100 | Cc1ccc2c(CCNc3cc(-c4cccnc4)nc(-c4cccc(C)n4)n3)c[nH]c2c1 [Example 1.82, [2-(6-Methyl-1H-indol-3-yl)-ethyl]-[2-(6-methyl-pyridin-2-yl)-6-pyridin-3-yl-pyrimidin-4-yl]-amine] | 
16 | 10 | COc1cccc(-c2cncc(-c3cc(NCc4cccc(O)c4)nc(-c4cccc(C)n4)n3)c2)c1 [Example 2.70, 3-([6-[5-(3-Methoxy-phenyl)-pyridin-3-yl]-2-(6-methyl-pyridin-2-yl)-pyrimidin-4-ylamino]-methyl}-phenol] | 
17 | 20 | Cc1cccc(-c2nc(NCCc3cccc4[nH]ccc34)cc(-c3cccnc3)n2)n1 [Example 1.6, [2-(1H-Indol-4-yl)-ethyl]-[2-(6-methyl-pyridin-2-yl)-6-pyridin-3-yl-pyrimidin-4-yl]-amine] | 
18 | 420 | CNc1cc(-c2cncc(-c3cccc(OC)c3)c2)nc(-c2cccc(C)n2)n1 [Example 2.69, [6-[5-(3-Methoxy-phenyl)-pyridin-3-yl]-2-(6-methyl-pyridin-2-yl)-pyrimidin-4-yl]-methyl-amine] | 
19 | 370 | Oc1ccc2[nH]cc(CCNc3cc(-c4cccnc4)nc(-c4ccccn4)n3)c2c1 [Example 1.29, 3-[2-(6-Pyridin-3-yl-2-pyridin-2-yl-pyrimidin-4-ylamino)-ethyl]-1H-indol-5-ol] | 
20 |  | Follistatin: an antagonist of activin signalling (protein, UniProt P19883 30-344, looked up) Follistatin: GNCWLRQAKNGRCQVLYKTELSKEECCSTGRLSTSWTEEDVNDNTLFKWMIFNGGAPNCIPCKETCENVDCGPGKKCRMNKKNKPRCVCAPDCSNITWKGPVCGLDGKTYRNECALLKARCKEQPELEVQYQGRCKKTCRDVFCPGSSTCVVDQTNNAYCVTCNRICPEPASSEQYLCGNDGVTYSSACHLRKATCLLGRSIGLAYEGKCIKAKSCEDIQCTGGKKCLWDFKVGRGRCSLCDELCPDSKSDEPVCASDNATYASECAMKEAACSSGVLLEVKHSGSCNSISEDTEEEEEDEDQDYSFPISSILEW | lung fibrosis (bleomycin-treated rats): attenuated lung fibrosis; number of macrophages and neutrophils in bronchoalveolar lavage (bleomycin-treated rats): significantly reduced
